Where “and” joins values, the source holds several entries; their conditions need not be identical. Equal entries are not always repeated. Toxic doses and inconclusive results are not listed.
System: CD2F1 mice, L1210 leukemia ip, survival T/C
Test: NCI In Vivo Anticancer Drug Screen. Data for tumor model L1210 Leukemia (intraperitoneal) in CD2F1 (CDF1) mice
Conditions: higher = longer survival
Procedure, shortened: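 Ratio T/C, where T is the treated-group value and C the vehicle-dosed control value, from mice implanted with a transplantable tumor.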

[1] = endpoint: mean survival time, dose: 50.0 mg/kg/injection, schedule: Q01DX009 (ip), vehicle: saline
[2] = endpoint: mean survival time, dose: 100.0 mg/kg/injection, schedule: Q01DX009 (ip), vehicle: saline with Tween-80
[3] = endpoint: mean survival time, dose: 100.0 mg/kg/injection, schedule: Q04DX003 (ip), vehicle: saline with Tween-80
[4] = endpoint: mean survival time, dose: 200.0 mg/kg/injection, schedule: Q01DX009 (ip), vehicle: saline with Tween-80
[5] = endpoint: mean survival time, dose: 200.0 mg/kg/injection, schedule: Q04DX003 (ip), vehicle: saline with Tween-80
[6] = endpoint: mean survival time, dose: 400.0 mg/kg/injection, schedule: Q04DX003 (ip), vehicle: saline with Tween-80
[7] = endpoint: mean survival time, dose: 100.0 mg/kg/injection, schedule: Q01DX001 (ip), vehicle: saline with Tween-80
[8] = endpoint: mean survival time, dose: 200.0 mg/kg/injection, schedule: Q01DX001 (ip), vehicle: saline with Tween-80
[9] = endpoint: mean survival time, dose: 400.0 mg/kg/injection, schedule: Q01DX001 (ip), vehicle: saline with Tween-80
[10] = endpoint: mean survival time, dose: 50.0 mg/kg/injection, schedule: Q01DX009 (ip), vehicle: saline with Tween-80
[11] = endpoint: mean survival time, dose: 100.0 mg/kg/injection, schedule: Q01DX009 (ip), vehicle: saline
[12] = endpoint: mean survival time, dose: 100.0 mg/kg/injection, schedule: Q04DX002 (ip), vehicle: saline with Tween-80
[13] = endpoint: mean survival time, dose: 200.0 mg/kg/injection, schedule: Q04DX002 (ip), vehicle: saline with Tween-80
[14] = endpoint: mean survival time, dose: 100.0 mg/kg/injection, schedule: Q04DX003 (ip), vehicle: saline
[15] = endpoint: mean survival time, dose: 200.0 mg/kg/injection, schedule: Q04DX003 (ip), vehicle: saline

C=C(Br)CN(CC)C(C)=O
T/C (endpoint: mean survival time, dose: 12.5 mg/kg/injection, schedule: Q01DX009 (ip), vehicle: saline): 102 % of control
T/C (endpoint: mean survival time, dose: 12.5 mg/kg/injection, schedule: Q04DX003 (ip), vehicle: saline): 96 % of control
T/C (endpoint: mean survival time, dose: 25.0 mg/kg/injection, schedule: Q01DX009 (ip), vehicle: saline): 97 % of control
T/C (endpoint: mean survival time, dose: 25.0 mg/kg/injection, schedule: Q04DX003 (ip), vehicle: saline): 95 % of control
T/C [1]: 114 % of control
T/C (endpoint: mean survival time, dose: 50.0 mg/kg/injection, schedule: Q04DX003 (ip), vehicle: saline): 104 % of control

O=C(O)c1cc(Cc2ccc(O)c(C(=O)O)c2)ccc1O (tested in a mixture with another compound)
T/C (endpoint: median survival time, dose: 6.25 mg/kg/injection, schedule: Q01DX009 (ip), vehicle: Klucel (hydroxypropylcellulose) (HPC)): 101 % of control
T/C (endpoint: median survival time, dose: 12.5 mg/kg/injection, schedule: Q01DX009 (ip), vehicle: Klucel (hydroxypropylcellulose) (HPC)): 104 % of control
T/C (endpoint: median survival time, dose: 25.0 mg/kg/injection, schedule: Q01DX009 (ip), vehicle: Klucel (hydroxypropylcellulose) (HPC)): 104 % of control
T/C (endpoint: median survival time, dose: 50.0 mg/kg/injection, schedule: Q01DX009 (ip), vehicle: Klucel (hydroxypropylcellulose) (HPC)): 97 % of control
T/C (endpoint: median survival time, dose: 100.0 mg/kg/injection, schedule: Q01DX009 (ip), vehicle: Klucel (hydroxypropylcellulose) (HPC)): 96 % of control
T/C (endpoint: median survival time, dose: 200.0 mg/kg/injection, schedule: Q01DX009 (ip), vehicle: Klucel (hydroxypropylcellulose) (HPC)): 89 % of control

O=C(O)CCc1nc2ccccc2c(=O)n1Cc1ccccc1
T/C (endpoint: mean survival time, dose: 100.0 mg/kg/injection, schedule: Q04DX003 (ip), vehicle: Klucel (hydroxypropylcellulose) (HPC)): 106 % of control
T/C (endpoint: mean survival time, dose: 200.0 mg/kg/injection, schedule: Q04DX003 (ip), vehicle: Klucel (hydroxypropylcellulose) (HPC)): 98 % of control
T/C (endpoint: mean survival time, dose: 400.0 mg/kg/injection, schedule: Q04DX003 (ip), vehicle: Klucel (hydroxypropylcellulose) (HPC)): 95 % of control

CNS(=O)(=O)c1ccc2c(c1)nc(SC)n2C
T/C [2]: 101 % of control
T/C [3]: 102 % of control
T/C [4]: 101 % of control
T/C [5]: 94 % of control
T/C (endpoint: mean survival time, dose: 400.0 mg/kg/injection, schedule: Q01DX009 (ip), vehicle: saline with Tween-80): 93 % of control
T/C [6]: 95 % of control

CCCCCCCCOc1ccc(/C=N\N=C\c2ccc(OCCCCCCCC)cc2)cc1
T/C [3]: 94 % of control
T/C [5]: 94 % of control
T/C [6]: 94 % of control

CCCN(CCC)S(=O)(=O)c1ccc(NC(=O)OC2CCCCCCC2)cc1
T/C (endpoint: mean survival time, dose: 100.0 mg/kg/injection, schedule: Q01DX001 (ip), vehicle: saline): 92 % of control
T/C (endpoint: mean survival time, dose: 200.0 mg/kg/injection, schedule: Q01DX001 (ip), vehicle: saline): 98 % of control
T/C (endpoint: mean survival time, dose: 400.0 mg/kg/injection, schedule: Q01DX001 (ip), vehicle: saline): 101 % of control

CC(=O)NCc1cnccn1
T/C (endpoint: mean survival time, dose: 100.0 mg/kg/injection, schedule: Q04DX003 (ip), vehicle: saline sonified): 103 % of control
T/C (endpoint: mean survival time, dose: 200.0 mg/kg/injection, schedule: Q04DX003 (ip), vehicle: saline sonified): 102 % of control
T/C (endpoint: mean survival time, dose: 400.0 mg/kg/injection, schedule: Q04DX003 (ip), vehicle: saline sonified): 102 % of control

NS(=O)(=O)c1cc(Cl)cc(Cl)c1O
T/C [5]: 91 % of control
T/C [6]: 93 % of control

O=c1cc(C(Cl)C2OC(CO)C(O)C2O)nc[nH]1 (configuration not stated)
T/C (endpoint: median survival time, dose: 18.13 mg/kg/injection, schedule: Q01DX005 (ip), vehicle: saline): 100 % of control
T/C (endpoint: median survival time, dose: 36.25 mg/kg/injection, schedule: Q01DX005 (ip), vehicle: saline): 98 % of control
T/C (endpoint: median survival time, dose: 72.5 mg/kg/injection, schedule: Q01DX005 (ip), vehicle: saline): 101 % of control
T/C (endpoint: median survival time, dose: 145.0 mg/kg/injection, schedule: Q01DX005 (ip), vehicle: saline): 103 % of control

CNC(=O)Nc1cc(OC)ccc1OC
T/C [7]: 106 % of control
T/C [8]: 106 % of control
T/C [9]: 102 % of control

O=c1[nH]cnc2c1nc(NCc1ccccc1)n2C1OC(CO)C(O)C1O (configuration not stated)
T/C (endpoint: mean survival time, dose: 12.5 mg/kg/injection, schedule: Q01DX005 (ip), vehicle: distilled water + Tween-80): 98 % of control
T/C (endpoint: mean survival time, dose: 25.0 mg/kg/injection, schedule: Q01DX005 (ip), vehicle: distilled water + Tween-80): 96 % of control
T/C (endpoint: mean survival time, dose: 50.0 mg/kg/injection, schedule: Q01DX005 (ip), vehicle: distilled water + Tween-80): 96 % of control
T/C (endpoint: mean survival time, dose: 100.0 mg/kg/injection, schedule: Q01DX005 (ip), vehicle: distilled water + Tween-80): 101 % of control
T/C (endpoint: mean survival time, dose: 150.0 mg/kg/injection, schedule: Q01DX005 (ip), vehicle: distilled water + Tween-80): 98 % of control

Clc1[nH]nc2ccccc12
T/C (endpoint: mean survival time, dose: 12.5 mg/kg/injection, schedule: Q01DX009 (ip), vehicle: saline with Tween-80): 102 % of control
T/C (endpoint: mean survival time, dose: 12.5 mg/kg/injection, schedule: Q04DX003 (ip), vehicle: saline with Tween-80): 98 % of control
T/C (endpoint: mean survival time, dose: 25.0 mg/kg/injection, schedule: Q01DX001 (ip), vehicle: saline with Tween-80): 90 % of control
T/C (endpoint: mean survival time, dose: 25.0 mg/kg/injection, schedule: Q01DX009 (ip), vehicle: saline with Tween-80): 105 % of control
T/C (endpoint: mean survival time, dose: 25.0 mg/kg/injection, schedule: Q04DX003 (ip), vehicle: saline with Tween-80): 93 % of control and 97 % of control
T/C (endpoint: mean survival time, dose: 50.0 mg/kg/injection, schedule: Q01DX001 (ip), vehicle: saline with Tween-80): 98 % of control
T/C [10]: 89 % of control
T/C (endpoint: mean survival time, dose: 50.0 mg/kg/injection, schedule: Q04DX003 (ip), vehicle: saline with Tween-80): 101 % of control
T/C [7]: 93 % of control
T/C [2]: 101 % of control
T/C [3]: 98 % of control and 97 % of control
T/C [4]: 89 % of control
T/C [5]: 100 % of control
T/C [6]: 86 % of control

Cc1ccc(S(=O)(=O)CN(O)C(N)=O)cc1
T/C (endpoint: mean survival time, dose: 7.5 mg/kg/injection, schedule: Q01DX009 (ip), vehicle: saline with Tween-80): 93 % of control
T/C (endpoint: mean survival time, dose: 15.0 mg/kg/injection, schedule: Q01DX009 (ip), vehicle: saline with Tween-80): 102 % of control
T/C (endpoint: mean survival time, dose: 30.0 mg/kg/injection, schedule: Q01DX009 (ip), vehicle: saline with Tween-80): 93 % of control
T/C (endpoint: mean survival time, dose: 60.0 mg/kg/injection, schedule: Q01DX009 (ip), vehicle: saline with Tween-80): 107 % of control
T/C (endpoint: mean survival time, dose: 120.0 mg/kg/injection, schedule: Q01DX009 (ip), vehicle: saline with Tween-80): 105 % of control
T/C (endpoint: mean survival time, dose: 240.0 mg/kg/injection, schedule: Q01DX009 (ip), vehicle: saline with Tween-80): 115 % of control

NC(N)=NS(=O)(=O)c1ccc(NCc2c3ccccc3nc3ccccc23)cc1
T/C (endpoint: median survival time, dose: 50.0 mg/kg/injection, schedule: Q01DX005 (ip), vehicle: Klucel (hydroxypropylcellulose) (HPC)): 150 % of control
T/C (endpoint: median survival time, dose: 172.8 mg/kg/injection, schedule: Q01DX005 (ip), vehicle: Klucel (hydroxypropylcellulose) (HPC)): 178 % of control
T/C (endpoint: median survival time, dose: 200.0 mg/kg/injection, schedule: Q01DX005 (ip), vehicle: Klucel (hydroxypropylcellulose) (HPC)): 153 % of control
T/C (endpoint: median survival time, dose: 400.0 mg/kg/injection, schedule: Q01DX005 (ip), vehicle: Klucel (hydroxypropylcellulose) (HPC)): 172 % of control
T/C (endpoint: median survival time, dose: 480.0 mg/kg/injection, schedule: Q01DX005 (ip), vehicle: Klucel (hydroxypropylcellulose) (HPC)): 150 % of control
T/C (endpoint: median survival time, dose: 800.0 mg/kg/injection, schedule: Q01DX005 (ip), vehicle: Klucel (hydroxypropylcellulose) (HPC)): 178 % of control and 182 % of control
T/C (endpoint: median survival time, dose: 1333.33 mg/kg/injection, schedule: Q01DX005 (ip), vehicle: Klucel (hydroxypropylcellulose) (HPC)): 187 % of control

CC(C)N(CCCC#N)C(C)C
T/C [1]: 96 % of control
T/C [11]: 95 % of control
T/C [3]: 97 % of control
T/C [5]: 89 % of control

CSc1nc(N)c(C#N)cc1C#N
T/C [7]: 100 % of control
T/C [8]: 89 % of control
T/C [9]: 89 % of control

O=C1c2ccccc2C(=O)N1CC(O)COc1ccccc1[N+](=O)[O-] (configuration not stated)
T/C [12]: 88 % of control
T/C [13]: 100 % of control

CC1CN(C2(c3ccccc3)CCCCC2)CCC12OCCO2 (configuration not stated)
T/C [12]: 93 % of control
T/C [13]: 97 % of control

NNC(=O)C1CC2CCC1C2 (configuration not stated)
T/C [1]: 107 % of control
T/C [11]: 109 % of control
T/C [14]: 97 % of control
T/C (endpoint: mean survival time, dose: 200.0 mg/kg/injection, schedule: Q01DX009 (ip), vehicle: saline): 105 % of control
T/C [15]: 114 % of control

COc1nc(NC(C)C)nc(NC(C)C)n1
T/C [10]: 97 % of control
T/C [2]: 107 % of control
T/C [14]: 95 % of control
T/C [4]: 105 % of control
T/C [15]: 100 % of control

Source: PubChem BioAssay AID256 (DTP/NCI, 2004)
